Laboratory results: US9447114B2, “Thieno- and furo[2,3-d]pyrimidine-2,4[1H,3H]-dione derivatives” (Hydra Biosciences, Inc., priority 2014, dated 2016)

Legend:
TRPC5 channel [1] = molecular target: T1, TRPC5 channel (Homo sapiens (Human), UniProt Q9UL62); assay: High throughput screening assay: intracellular Ca2+ rise, Fluo4 cell-based fluorescence; conditions: HEK293/TREx cells inducibly expressing TRPC5, high-Ca2+ Ringer, 14 mM Ca2+ final, triplicate, 0.027-20 μM
Text: The assay depended on detection of the rise in intracellular Ca2+ concentration ([Ca2+]i) following channel activation in cells inducibly expressing the TRPC5 channel. Ca2+ rise was quantified with the use of fluorescent Ca2+ indicators that were loaded into cells and thereafter indicated the [Ca2+]i Ca2+ influx followed activation of the TRPC5 channel. Compounds inhibiting the [Ca2+]i rise were considered hits for further investigation.
The commercially available HEK293/TREx line (Invitrogen) was stably transfected with a TRPC5 construct and screened by conventional calcium imaging to find clones with TRPC5 expression following stimulation with 1 μg/ml tetracycline. These cells were maintained in the growth medium recommended by the manufacturer supplemented with 100 μg/ml hygromycin to promote retention of the TRPC5 construct. After growing to near confluency, cells were plated at a density of ˜35,000 cells/well in 384 well CellBind plates (Corning) in the presence of 1 μg/ml tetracycline, and allowed to grow for 20-30 hrs. A nearly confluent monolayer resulted. Cells were then loaded with Ca2+ dye: Fura-2/AM or Fluo4/AM was added to the wells to a final concentration of 4 μM or 0.5 μM, respectively, and incubated for 80 min or 60 min, respectively, at room temperature. Supernatant was then removed from the cells by inverting plates with a sharp flick, and 25 μl Hank's Balanced Salt Solution (HBSS; 0.185 g/l D-glucose, 0.9767 g/l MgS04 (anhydrous), 0.4 g/l KCl, 0.06 g/l KH2PO4 (anhydrous), 0.35 g/l NaHCO3, 8.0 g/l NaCl, and 0.04788 g/l Na2HPO4 (anhydrous); pH 7.4) was then added to each well. Following ˜0.5 hour for recovery from loading, cells were assayed using the Hamamatsu FDSS 6000 system, which permitted illumination alternately at 340 nm and 380 nm for Fura-2 experiments, or at 485 nm for Fluo4 experiments. Frames were acquired at a rate of 0.2 Hz. During the assay, the plates were continuously vortexed, with pipette mixing of wells following addition of each reagent. For the screening assay, 26 μl of a diluted compound stock (at 50 μM) was added to each well for 2 minutes following the collection of a short (4 frame) baseline. 13 μl 62 mM high-Ca2+Ringer solution (4.17 ml of normal ringer (with 2 mM Ca2+) plus 5.83 ml of isotonic calcium ringer (105 mM Ca2+; in this ringer all sodium has been replaced with calcium)) was then added to each well, achieving a final concentration of 14 mM Ca2+ and 10 μM test compound. Data was collected for ˜3 minutes following addition of high Ca2+Ringer, where the fluorescent intensity (for Fluo4) and the F340/F380 ratio (for Fura-2) were proportional to the [Ca2+]i Negative controls consisted of HEK293/TREx TRPC5 cells exposed to high Ca2+ solution, but no compound. Positive control conditions consisted of addition of 2-APB, a promiscuous blocker of TRPC5 and other channels, to columns 23 and 24 of the plates, to a final concentration of 200 μM. These controls defined a screening window, and “hits” were defined as those compounds inhibiting the fluorescence response by at least 40%. IC50 values were determined for compounds defined as “hits.” The Fluo4 cell-based fluorescence assay was used to determine the intracellular Ca2+ concentration in the presence of varying drug concentration. Final concentrations of compounds tested were 20 μM, 6.667 μM, 2.222 μM, 0.741 μM, 0.247 μM, 0.082 μM, and 0.027 μM. Compounds were tested in triplicate at all concentrations. Standard software was used to fit IC50 curves.
Additionally or alternatively, efficacy can be represented as % inhibition in the presence (of a given concentration of compound) versus the absence of compound or in comparison to a control compound. For example, efficacy can be represented as % inhibition of ion flux in the presence versus the absence of compound.

TRPC5 channel [2] = molecular target: T1, TRPC5 channel; assay: Whole-cell patch clamp of TRPC5 current; assay type: cell-based; conditions: TRPC5-expressing HEK293 TREx cells, current activated by 80 μM LaCl3 and 1.4 μM free Ca2+ in pipette, IC50 estimated
Text: Patch clamp experiments permit the detection of currents through the TRPC5 channel in the cell line described above. In normal whole-cell patch clamp recordings, a glass electrode is brought into contact with a single cell and a high-resistance (gigaohm) seal is established with the cell membrane. The membrane is then ruptured to achieve the whole-cell configuration, permitting control of the voltage of the cell membrane and measurement of currents flowing across the membrane using the amplifier attached to the electrode and resulting in the replacement of cytoplasm with the pipette solution. A perfusion system permits control of the extracellular solution, including the addition of blockers and activators of the current. The current can be activated by including 1.4 μM free Ca^2+ in the pipette (intracellular) solution, and 80 μM LaCl3 in the extracellular solution.
TRPC5 cells were induced 20-48 hours, removed from growth plates, and replated at low density (to attain good single-cell physical separation) on glass coverslips for measurement. In some cases, cells were grown in low density overnight on glass coverslips. Patch clamp recordings were made in the whole-cell mode with a holding potential of −40 mV. Every 5 seconds, a voltage ramp was applied from −120 to +100 mV, 400 ms in duration. Currents elicited were quantified at −80 mV and +80 mV. The internal solution consisted of 140 mM cesium aspartate, 10 mM HEDTA, 2 mM CaCl2, 2.27 mM MgCl2 and 10 mM HEPES, pH 7.2, with 1,400 nM calculated free Ca^2+. The external solution consisted of 150 mM NaCl, 4.5 mM KCl, 1 mM MgCl2, 2 mM CaCl2 10 mM HEPES, 10 mM glucose, 1 mM EGTA, pH 7.4. Upon addition of LaCl3, TRPC5 current was induced only in TRPC5-expressing cells and not in parental HEK293 TREx cells. Removal of the LaCl3 stimulus causes most of the current to go away. Potential blockers were tested for ability to block both inward and outward currents in the continued presence of LaCl3.
IC50 of a compound of Formula (I) was estimated by testing the compound at 5 μM and 500 nM. […] IC50 for a compound of Formula (I) between 500 nM and 5 μM was similarly estimated.

T1 sequence (Q9UL62 whole entry): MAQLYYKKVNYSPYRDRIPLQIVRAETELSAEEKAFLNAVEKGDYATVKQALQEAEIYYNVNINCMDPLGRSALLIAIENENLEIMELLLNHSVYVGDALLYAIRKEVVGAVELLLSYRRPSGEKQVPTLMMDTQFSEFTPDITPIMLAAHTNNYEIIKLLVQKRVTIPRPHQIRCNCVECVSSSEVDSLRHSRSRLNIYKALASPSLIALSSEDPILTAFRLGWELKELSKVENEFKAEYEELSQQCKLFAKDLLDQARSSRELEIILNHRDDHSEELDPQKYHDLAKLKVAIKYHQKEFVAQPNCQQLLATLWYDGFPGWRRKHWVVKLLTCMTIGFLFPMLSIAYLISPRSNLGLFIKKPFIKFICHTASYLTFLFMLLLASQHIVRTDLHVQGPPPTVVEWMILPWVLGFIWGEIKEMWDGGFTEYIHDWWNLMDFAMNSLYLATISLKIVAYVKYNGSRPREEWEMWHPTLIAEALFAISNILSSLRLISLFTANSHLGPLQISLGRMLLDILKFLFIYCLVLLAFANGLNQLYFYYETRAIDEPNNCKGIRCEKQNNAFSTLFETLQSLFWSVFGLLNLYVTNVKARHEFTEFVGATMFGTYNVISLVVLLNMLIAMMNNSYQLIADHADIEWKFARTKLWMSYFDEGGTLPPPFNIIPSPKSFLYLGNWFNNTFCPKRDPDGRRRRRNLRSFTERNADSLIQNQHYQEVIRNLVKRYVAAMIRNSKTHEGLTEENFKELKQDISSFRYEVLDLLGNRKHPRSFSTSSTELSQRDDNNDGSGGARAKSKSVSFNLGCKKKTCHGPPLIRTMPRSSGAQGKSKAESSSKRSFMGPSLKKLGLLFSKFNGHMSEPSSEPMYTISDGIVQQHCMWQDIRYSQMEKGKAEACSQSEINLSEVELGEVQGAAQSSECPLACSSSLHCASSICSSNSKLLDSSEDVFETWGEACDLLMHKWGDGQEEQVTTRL

An IC50 (TRPC5 channel [1]) of 117 nM and an IC50 (TRPC5 channel [2]) of less than 1 nM were found for `Cn1c(=O)n(CCCO)c(=O)c2c(Cc3ccc(Cl)cc3)c(Oc3cccc(Cl)c3)sc21` [Compound 2, 5-(4-chlorobenzyl)-6-(3-chlorophenoxy)-3-(3-hydroxypropyl)-1-methylthieno[2,3-d]pyrimidine-2,4(1H,3H)-dione] in this work.
